Test results reported in publication PMC4604124, “In Vitro Characterization of the Pharmacological Properties of the Anti-Cancer Chelator, Bp4eT, and Its Phase I Metabolites” (PLoS ONE, 2015).
“And” between values parts separate entries of the source, which are not always exact repeats. Equal entries are not always repeated. Where two headings read alike, the source gives them in different places.

Experiments:
[1] = system: MCF-7 human breast adenocarcinoma cells; assay: MTT cytotoxicity assay, MCF-7 cells; format: cell-based; conditions: for IC50: MTT
Description: For cytotoxicity experiments, cancer cells were seeded at a density of 5,000 (MCF-7), 10,000 (HL-60) or 2,000 cells/well (HCT116 and A549) in 96-well plates (TPP) for 24 h/37°C prior to the addition of examined agents. The non-cancerous cells, 3T3 and H9c2 cells, were cultured for 24 h/37°C in 96-well plates at a density of 10,000 cells/well, the medium was then changed to serum- and pyruvate-free DMEM (Sigma-Aldrich) and incubated with the cells for another 24 h/37°C. The cytotoxic effects of Bp4eT and its metabolites were studied at different concentrations after a 72 h/37°C incubation. In order to aid the dissolution of the lipophilic ligands, 0.1% dimethyl sulfoxide (v/v) (DMSO; Sigma-Aldrich) was present in the culture medium of all groups. At this concentration, DMSO had no effect on cellular proliferation or viability.
The viability of cells were determined using an MTT assay (Sigma-Aldrich) according to previously established methods. The optical density of soluble MTT was measured at λ = 570 nm, subtracting the λ = 690 nm background using a Tecan Infinite 200M plate reader (Tecan Group, Männedorf, Switzerland). The viability or proliferation of experimental groups was expressed as a percentage of the untreated controls (100%).
(§1) SigmaStat for Windows 3.5 (Systat Software, San Jose, CA, USA) statistical software package was utilized to analyze results. The data are expressed as the mean ± SD of a given number of experiments. Statistical significance was determined using a one-way ANOVA with a Bonferroni post-hoc test or Student’s t-test. The results were considered to be statistically significant when p < 0.05. The IC50 values were calculated using CalcuSyn 2.0 software (Biosoft, Cambridge, UK). Cell cycle analysis was evaluated using MultiCycle AV Software (Phoenix Flow Systems, San Diego, CA, USA).

[2] = system: MCF-7 cells prelabeled with 59Fe2-transferrin; assay: Mobilization (efflux) of cellular 59Fe; format: cell-based, human; design: Efflux 59Fe / Efflux 59Fe, Ave: unit not given here
Excerpt: Human transferrin (Sigma) was labeled with ^56Fe or ^59Fe (PerkinElmer, Massachusetts, USA) to produce ^56Fe2-transferrin or ^59Fe2-transferrin (^59Fe2-Tf), respectively, with a final specific activity of 500 pCi/pmol Fe, as previously described. Unbound ^59Fe was removed by exhaustive vacuum dialysis against a large excess of 0.15 M NaCl buffered to pH 7.4 with 1.4% NaHCO3 by standard methods.
To examine the ability of studied compounds to mobilize cellular ^59Fe from MCF-7 cells, iron efflux experiments were performed using established techniques. In brief, after pre-labeling confluent MCF-7 cells on 6-well plates with 0.75 μM ^59Fe2-Tf for 3 h/37°C, the cells were washed four times with ice-cold PBS and then subsequently incubated with 25 μM of Bp4eT or its metabolites for 3 h/37°C. The overlying medium containing released ^59Fe was then decanted from the cells. Radioactivity was measured in both the cells and the supernatant using a γ-scintillation counter (Wallac Wizard 3, Turku, Finland).

MCF-7 cells = assay: Cell cycle analysis by flow cytometry (propidium iodide); format: cell-based, human; conditions: 0.1 μM, 72 h
Description: To examine the effect of the agents on the cell cycle, MCF-7 cells were seeded in 60 mm Petri dishes at a density of 240,000 cells/dish and incubated with Bp4eT or its metabolites for 72 h/37°C. The cells were then harvested, fixed by ethanol and stained by propidium iodide (Molecular Probes, Eugene, OR, USA) for 30 min/37°C, as described previously. Cells were analyzed using Accuri C6 flow cytometer (Becton Dickinson and Company, San Jose, CA USA). Propidium iodide was excited at λex = 488 nm and fluorescence analyzed at λem = 585 nm (FL-2) with a total of 10,000 events collected per analysis.
as §1

caspases 3/7 = assay: Caspase activity, luminescent kit, caspases 3/7; format: cell-based, human
Description: To assess the effect of the compounds on caspase activity, MCF-7 cells were incubated with 100 nM Bp4eT or its metabolites for 3, 24 or 72 h/37°C in 96-well plates, as described above. The cells were then lysed by adding 100 μL of cold lysis buffer (100 mM HEPES, 10 mM CHAPS, 10 mM D-L-dithiothreitol, pH 7.4) to 100 μL of medium in each well. Lysates were immediately frozen at -80°C. Thawed lysates were used to assess caspase activity using luminescent kits for caspases 3/7, 8 and 9 (Promega, Madison, WI, USA). The luminescence was measured using the Tecan Infinite 200M plate reader. Caspase activity in the experimental groups was corrected according to the cellular viability of each group and expressed as a percentage of activity of the untreated control (100%).

CCNC(=S)NN=C(c1ccccc1)c1ccccn1 [Bp4eT, 2-benzoylpyridine 4-ethyl-3-thiosemicarbazone]
MCF-7 proliferation, % of the control ([1]; 0.1 μM, 72 h): 27%
Therapeutic index, IC50 non-cancerous cells / IC50 neoplastic cells ([1]; 3T3/MCF-7): 87.3
Therapeutic index, IC50 non-cancerous cells / IC50 neoplastic cells ([1]; H9c2/MCF-7): 34.9
IC50 ([1]; Homo sapiens, MCF7, 72 h, MCF-7, 72 h/37°C, mean ± SD, n ≥ 4, read-out: IC50): 15 ± 2 nM
IC50 ([1]; Homo sapiens, MCF7, MCF-7, 5 000 b/j, průměr (mean), read-out: IC50 měřené): 14.6 nM
IC50 ([1]; Homo sapiens, MCF7, MCF-7, 5 000 b/j, single experiment (date), read-out: IC50 měřené): 14.6 nM
MTT, relative to control (0 = 100) ([1]; MCF-7, 5 000 b/j, 0.1 nM, průměr (mean)): 96.38
MTT, relative to control (0 = 100) ([1]; MCF-7, 5 000 b/j, 0.1 nM, single experiment (date)): 88.7924 and 103.938 and 95.2002 and 101.937 and 92.0538
MTT, relative to control (0 = 100) ([1]; MCF-7, 5 000 b/j, 0.3 nM, průměr (mean)): 88.87
MTT, relative to control (0 = 100) ([1]; MCF-7, 5 000 b/j, 0.3 nM, single experiment (date)): 99.7305 and 86.2923 and 86.9644 and 82.4877
MTT, relative to control (0 = 100) ([1]; MCF-7, 5 000 b/j, 1 nM, průměr (mean)): 87.17
MTT, relative to control (0 = 100) ([1]; MCF-7, 5 000 b/j, 1 nM, single experiment (date)): 87.1761 and 96.2311 and 86.4816 and 83.9319 and 82.0349
MTT, relative to control (0 = 100) ([1]; MCF-7, 5 000 b/j, 3 nM, průměr (mean)): 84.98
MTT, relative to control (0 = 100) ([1]; MCF-7, 5 000 b/j, 3 nM, single experiment (date)): 92.03 and 87.788 and 84.0816 and 76.0316
MTT, relative to control (0 = 100) ([1]; MCF-7, 5 000 b/j, 10 nM, průměr (mean)): 59.89
MTT, relative to control (0 = 100) ([1]; MCF-7, 5 000 b/j, 10 nM, single experiment (date)): 58.817 and 55.8764 and 63.7331 and 67.2949 and 53.713
MTT, relative to control (0 = 100) ([1]; MCF-7, 5 000 b/j, 30 nM, průměr (mean)): 30.78
MTT, relative to control (0 = 100) ([1]; MCF-7, 5 000 b/j, 30 nM, single experiment (date)): 29.4154 and 32.9782 and 31.8134 and 28.9002
MTT, relative to control (0 = 100) ([1]; MCF-7, 5 000 b/j, 100 nM, průměr (mean)): 27.09
MTT, relative to control (0 = 100) ([1]; MCF-7, 5 000 b/j, 100 nM, single experiment (date)): 33.1607 and 22.627 and 26.6274 and 27.398 and 25.6334
IC50 ([1]; MCF-7, 5 000 b/j, single experiment (date), read-out: IC50 měřené): 16.3 nM and 16.2 nM and 11.2 nM
Release of cellular 59Fe, % of total cellular 59Fe ([2]; 25 μM, 3 h/37°C, MCF-7): 46.4%
Efflux 59Fe, Ave ([2]; average of all replicates): 46.4439
Efflux 59Fe ([2]; single replicate (three per date)): 48.2798 and 45.5975 and 45.2039 and 47.6936 and 45.8687 and 45.6484 and 48.9726 and 45.6298 and 45.1012
G1 phase of the cell cycle (MCF-7 cells): not significantly (p > 0.05) different from the control
Percentage of cells in the S phase (MCF-7 cells; control 15%): 35%
Percentage of cells in the G2/M phase (MCF-7 cells; control 33%): 12%
Activation of caspases 7, 8 and 9 (caspases 3/7; 100 nM, 3 h, MCF-7, statement covers caspases 7, 8 and 9): did not activate any of the caspases
Caspase 7 activity, % of the control (caspases 3/7; 100 nM, 24 h, MCF-7, corrected for viability): 203%
Caspase 7 activity, % of control (caspases 3/7; 100 nM, 72 h, MCF-7, corrected for viability): 318%
kaspáza (3) a 7, % kontroly (caspases 3/7; 3 hodiny (3 h), % of control): 96.83%
kaspáza (3) a 7, průměry (means of raw signal) (caspases 3/7; 3 hodiny (3 h), mean of 4 experiments): 1616.38
kaspáza (3) a 7, raw signal (caspases 3/7; 3 hodiny, individual experiments by date): 1828 and 1581 and 1679 and 1377.5
kaspáza (3) a 7, raw signal, průměry (caspases 3/7; 3 hodiny, mean): 1616.38
kaspáza (3) a 7, % kontroly (caspases 3/7; 3 hodiny, mean, normalised to viability): 101.92 % kontroly
kaspáza (3) a 7, signal / viabilita (caspases 3/7; 3 hodiny, normalised to viability, individual experiments by date): 18.975 and 16.4111 and 17.4284 and 14.2987
